Data set [1] relates to T24 cells (human transitional cell bladder cancer cells). The data set is described as follows: Cell toxicity of cisplatin against T24 cells with or without ALA (WST-8, Cell Counting Kit-8). The class given is cell-based. The note with it: ALA hydrochloride salt 200 μM + sodium ferrous citrate 100 μM, any timing, FIG. 8. Here is the method:
(§1) It was validated whether or not ALA administration has an influence on the cell toxicity (anticancer effect) of anticancer agent against cancer cells.
(§2) The following cancer cells were employed in this experiment: T24 cells (human transitional cell bladder cancer cells) and 253J-BV cells (human urinary tract epithelium cancer cells). […] ALA hydrochloride salt was employed as ALA. In addition, sodium ferrous citrate was administered together with ALA administration.
(§3) Cell toxicity at each concentration was compared in the following Groups I to IV.
(§4) Group I: “No addition group,” i.e. the group with no ALA administered
(§5) Group II: “Pre-administration group,” i.e. the group with ALA administered only “during preculture”
(§6) (1) T24 cells (human transitional cell bladder cancer cells) or 253J-BV cells (human urinary tract epithelium cancer cells) were cultured with a 10 cm dish in DMEM medium comprising 10% FBS to a subconfluent state. They were then collected by trypsin treatment.
(§7) (2) For test groups Group I (no addition group) and Group III (simultaneous administration group), the cells collected in (1) were suspended to a density of 50000 cells/ml in DMEM medium comprising 10% FBS. […]

For data set [2], the system named is SD rats. The data set is described as follows: Side effects on the kidney (nephrotoxicity) and weight loss accompanying cisplatin administration in rats, with or without ALA (Example 2). The class given is in vivo, rat. Conditions: for Effect on side effects of anticancer agent on the kidney: FIGS. 4 to 6. Here is the method:
Serum creatinine and urea nitrogen value (BUN) were measured from blood samples. Moreover, urine protein was measured from urine samples.
Weight loss which is a side effect on general symptoms as well as a side effect related to the gastrointestinal system was also observed at the same time.
Forty-six 6 weeks-old SD rats (male) were purchased from Japan SLC, Inc. They were conditioned for 7 days after purchase. Body weight measurement, blood collection, and urine collection of each rat were performed at the end of the conditioning period. The experiment was started on the next day with 44 rats. Two individuals that had poor serum creatinine, urea nitrogen value (BUN), and urine protein value at the measurement after conditioning were excluded from the experiment.
In this experiment, experiment groups were divided into the following 4 groups I to IV according to the ALA administration condition. The experiment was otherwise performed similarly to Example 1.
Group I (negative control group): Saline was administered on Day 6 from the start of experiment. They were otherwise kept as usual. n=8
Group II (positive control group): CDDP was administered on Day 6 from the start of experiment. They were otherwise kept as usual. n=14
Group III (“post-administration group”): On Day 6 from the start of experiment, ALA was administered, and then CDDP was administered. ALA was also administered for 10 days from Day 6 to Day 15. They were otherwise kept as usual. n=10
Group IV (“full administration group”): ALA was administered for 15 days from the starting day of experiment to Day 15. On Day 6, ALA was administered, and then CDDP was administered. n=11
The body weight of each rat was measured, and blood and urine collection was carried out on starting day of experiment, Days 6, 7, 9, 11, 13, and 15. The collected blood samples were used for measuring serum creatinine and urea nitrogen value (BUN). In addition, the collected urine samples were used for measuring urine protein. Each rat was also dissected on Day 16, and the kidney was resected and observed.

For data set [3], the system named is SD rats. The data set is described as follows: Side effects accompanying cisplatin administration in rats, with or without ALA (Example 1: survival, kidney HE staining, hair luster, stool state, activity). The class given is in vivo, rat. The note with it: for Damage to the kidney (HE staining, Day 16): FIG. 2. The method, then:
Forty-four 6 weeks-old SD rats (male) were purchased from Japan SLC, Inc. They were used for experiments after conditioning for 7 days after purchase.
The experiment duration was a total of 16 days, and experiment groups were divided into the following 5 groups I to V according to the ALA administration condition. […] CDDP administration dose was 8.0 mg/kg of body weight, and each rat was intraperitoneally administered. Saline was administered instead of cisplatin to Group I as the negative control group. ALA was also administered to Groups III, […], and V according to the following schedule. On the other hand, no ALA was administered to the positive control group (Group II). ALA administration to Groups III, IV, and V was performed by daily oral administration of 10 mg/kg of body weight of ALA hydrochloride salt+15.7 mg/kg of body weight of sodium ferrous citrate (dissolved in distilled water and sodium bicarbonate).
(ALA Administration Conditions of Groups I to V)
Group I (negative control group): Saline was administered on Day 6 from the start of experiment. They were otherwise kept as usual. n=4
Group II (positive control group): CDDP was administered on Day 6 from the start of experiment. They were otherwise kept as usual. n=10
Group III (“pre-administration group”): ALA was administered for a total of 5 days from the starting day of experiment to Day 5. CDDP was also administered on Day 6. They were otherwise kept as usual. n=10
Group IV (“post-administration group”): On Day 6 from the start of experiment, ALA was administered, and then CDDP was administered. ALA was also administered for 10 days from Day 6 to Day 15. They were otherwise kept as usual. n=9
Group V (“full administration group”): ALA was administered for 15 days from the starting day of experiment to Day 15. On Day 6, ALA was administered, and then CDDP was administered. n=9
Blood was collected every two days for 15 days from the starting day of experiment to Day 15. Observation of hair luster, stool state, and activity of rats was also carried out. Each rat was also dissected on Day 16, and the kidney was resected. Kidney sections were prepared after resection, and observed under a microscope after HE staining.
Side effects were strongly observed from Day 9 to Day 13 from the starting day of experiment. Accordingly, the state on Days 9, 11, and 13 were scored and evaluated. Hair luster here evaluates the side effect related to skin symptoms. Stool state evaluates the side effect related to the gastrointestinal system. Activity evaluates the side effect related to general symptoms, in particular evaluates the side effect related to malaise.
Each item was evaluated for each mouse by the following criteria, and is the numerical value of the sum of the three days (Days 9, 11, and 13) divided by the number of evaluation subject mice.
5: Very good, 4: ordinarily state, 3: slightly poor, 2: poor, and 1: death
5: Ordinarily stool, 4: small amount of stool, 3: slight diarrhea, 2: diarrhea, and 1: death
5: Ordinarily state, 4: weak movement, 3: slight movement, 2: no movement, and 1: death

Data set [4] deals with 253J-BV cells (human urinary tract epithelium cancer cells). Put plainly: Cell toxicity of cisplatin against 253J-BV cells with or without ALA (WST-8, Cell Counting Kit-8). The class given is cell-based. Conditions: ALA hydrochloride salt 200 μM + sodium ferrous citrate 100 μM, any timing, FIG. 9. The method, then: as §1, §2, §3, §4, §5, §6, §7
On the technique in general: Tetrazolium dyes change colour on reduction, which living cells bring about.

Data set [5] is described as follows: Case of an advanced colon cancer patient taking aminolevulinic acid phosphate salt and sodium ferrous citrate concurrently with anticancer agent therapy (Example 4). The class given is in vivo, human. Conditions: one patient.
[6] abbreviates: Group III (pre-administration): ALA hydrochloride salt 10 mg/kg + sodium ferrous citrate 15.7 mg/kg oral daily to Day 5, CDDP 8.0 mg/kg i.p. Day 6, sum of scores of Days 9, 11, 13 per animal.
Where [7] appears, read: Group IV (post-administration): ALA hydrochloride salt 10 mg/kg + sodium ferrous citrate 15.7 mg/kg oral daily Day 6 to Day 15, CDDP 8.0 mg/kg i.p. Day 6, sum of scores of Days 9, 11, 13 per animal.
Where [8] appears, read: Group V (full administration): ALA hydrochloride salt 10 mg/kg + sodium ferrous citrate 15.7 mg/kg oral daily from starting day to Day 15, CDDP 8.0 mg/kg i.p. Day 6, sum of scores of Days 9, 11, 13 per animal.
Where [9] appears, read: Groups III, IV and V (ALA + CDDP) versus Group II, FIG. 1.

With `NCC(=O)CCC(=O)O` [ALA, 5-aminolevulinic acid], the “Influence of ALA administration on anticancer effect of cisplatin” value in data set [1] and in data set [4] was “hardly attenuated” throughout. Besides, the “Effect on weight loss” value with SD rats [2] (Group III (post-administration) + CDDP, FIG. 3) is given as “a certain effect”; in the data set with SD rats [2] (Group IV (full administration) + CDDP, FIG. 3) it was “the most effective”. For the same compound, the results for the “Effect on side effects of anticancer agent on the kidney” value in the data set with SD rats [2] (Group III (post-administration) + CDDP) and in the data set on SD rats [2] (Group IV (full administration) + CDDP) were “a certain effect” and “the most effective”, respectively. In the data set on SD rats [2] (Group III (post-administration) and Group IV (full administration), ALA + CDDP, FIG. 3), the “Decrease in body weight” value is on record as “decreased in body weight due to the side effects from anticancer agent was suppressed”. Also, in the data set with SD rats [2] (Group III and Group IV, ALA + CDDP, FIG. 3), the “Re-increase of body weight” value is “re-increase of body weight was observed on Day 5 and after”. The Urine protein value result in the data set with SD rats [2] (Group III and Group IV, ALA + CDDP, slight increase on Day 3, FIG. 6) is listed as “a value not much different from the negative control group was maintained”. Moreover, the Serum creatinine value result with SD rats [2] (Group III and Group IV, ALA + CDDP, slight increase on Day 5, FIG. 4) is “a value not much different from the negative control group was maintained”. Also, the “Urea nitrogen value (BUN)” value in the data set on SD rats [2] (Group III and Group IV, ALA + CDDP, slight increase on Day 5, FIG. 5) is “a value not much different from the negative control group was maintained”. Moreover, the “Damage to the kidney (HE staining, Day 16)” value in the data set on SD rats [3] (ALA-administered groups + CDDP) is “alleviated the damage to the kidney”; with SD rats [3] (Group III (pre-administration) and Group IV (post-administration) + CDDP), “a certain effect”; in the data set on SD rats [3] (Group V (full administration) + CDDP), “the most effective”. Besides, the Rat survival rate result is “a certain suppression effect” in the data set with SD rats [3] (Group III (pre-administration) or Group IV (post-administration) + CDDP, FIG. 1) and “highest survival rate” in the data set with SD rats [3] (Group V (full administration, ALA throughout) + CDDP, FIG. 1). Besides, the “Activity (final evaluation)” value in the data set with SD rats [3] (setting [6]) is on record as 8.10; in the data set on SD rats [3] (setting [7]), 9.56; with SD rats [3] (setting [8]), 11.33. Also, the “Hair luster (final evaluation)” value stood at 8.10 in the data set on SD rats [3] (setting [6]), 8.89 with SD rats [3] (setting [7]) and 11.33 with SD rats [3] (setting [8]). The “Overall evaluation (final evaluation)” value stood at 7.50 in the data set on SD rats [3] (setting [6]), 8.78 with SD rats [3] (setting [7]) and 9.67 in the data set on SD rats [3] (setting [8]). The “Stool state (final evaluation)” value in the data set on SD rats [3] (setting [6]) was found to be 8.90; in the data set on SD rats [3] (setting [7]), 10.78; with SD rats [3] (setting [8]), 13.33. The “Rat survival rate until Day 16” value with SD rats [3] (setting [9]) is reported as “reduction in the survival rate until Day 16 could be suppressed”. The “Timing of the start of reduction in the survival rate” value with SD rats [3] (setting [9]) is on record as “the timing of the start of reduction in the survival rate was delayed”.

For `N.N.[Cl][Pt][Cl]` [cisplatin, reference compound], the Rat survival rate entry in the data set on SD rats [3] (Group II (positive control): CDDP 8.0 mg/kg i.p. Day 6, no ALA, FIG. 1) is “reduction in the survival rate was seen on Day 9”. Further, in the data set with SD rats [3] (Group II (positive control): CDDP 8.0 mg/kg i.p. on Day 6, no ALA, sum of scores (5 best, 1 death) of Days 9, 11, 13 divided by number of animals), the “Hair luster (final evaluation)” value is 7.80.

Regarding aminolevulinic acid phosphate salt, the “Time for which anticancer agent therapy could be continued after the surgery” value in data set [5] (FOLFOX, FOLFIRI and Avastin with oral 50 mg aminolevulinic acid phosphate salt + 57.4 mg sodium ferrous citrate per day) was “one year”. In addition, the Hemoglobin in data set [5] (Jan. 28, 2011, about 1 year and 5 months after starting oral 50 mg aminolevulinic acid phosphate salt + 57.4 mg sodium ferrous citrate per day, just before surgery 9.80) is reported as 12.20 g/dL. Moreover, in data set [5] (Jan. 28, 2011, about 1 year and 5 months after starting oral 50 mg aminolevulinic acid phosphate salt + 57.4 mg sodium ferrous citrate per day, just before surgery 13.20), the “Number of Leukocytes” value was found to be 6200 µL⁻¹. Moreover, the “Number of Erythrocytes” value in data set [5] (Jan. 28, 2011, about 1 year and 5 months after starting oral 50 mg aminolevulinic acid phosphate salt + 57.4 mg sodium ferrous citrate per day, just before surgery (Aug. 19, 2009) 2.97) came out at 3.44e+06 µL⁻¹. Also, in data set [5] (about 1 year and 5 months after starting intake, with sodium ferrous citrate), the Anemia improvement effect entry is reported as “anemia as a side effect of administration of anticancer agent is improved”. Further, in data set [5] (declared life expectancy 3 months, oral 50 mg aminolevulinic acid phosphate salt + 57.4 mg sodium ferrous citrate per day), the Survival after surgery entry is “one and a half years”.

For the origin of these results see patent publication US9707196B2, “Treatment agent and/or prophylactic agent for side effects of cancer drugs” (SBI Pharmaceuticals Co., Ltd., priority 2011, dated 2017).
